The values that follow come from ChEMBL document CHEMBL1201862, “PubChem BioAssay data set” (2004).

In experiment [1] the target is Heat shock protein HSP 90-alpha (Homo sapiens, UniProt P07900). It counts as functional, organism-based.
Experiment [2] addresses T1, Neuropeptide Y receptor type 2 (Homo sapiens, UniProt P49146).
T1 sequence (P49146 whole entry): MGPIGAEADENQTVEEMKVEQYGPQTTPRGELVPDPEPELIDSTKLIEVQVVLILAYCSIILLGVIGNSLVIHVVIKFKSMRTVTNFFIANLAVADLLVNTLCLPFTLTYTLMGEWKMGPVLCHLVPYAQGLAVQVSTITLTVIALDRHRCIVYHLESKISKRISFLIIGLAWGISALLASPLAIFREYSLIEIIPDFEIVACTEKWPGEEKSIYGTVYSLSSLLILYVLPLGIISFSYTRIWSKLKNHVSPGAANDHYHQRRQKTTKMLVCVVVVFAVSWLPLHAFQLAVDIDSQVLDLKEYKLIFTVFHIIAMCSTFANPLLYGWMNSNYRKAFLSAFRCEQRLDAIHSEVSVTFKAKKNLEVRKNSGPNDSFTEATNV
Briefly: Fluorescence-based cell-based high-throughput dose response assay for agonists of NPY-Y2. [Related pubchem assays: 1703 (Screening assay (CNGC inhibitors).), 1359 (Screening assay (NPY-Y2 potentiators or agonists).), 1304 (Screening assay (NPY-Y1 potentiators or agonists).), 1710 (Screening assay (NPY-Y2 agonists).), 1791 (Summary AID.)]. It is filed as functional.

Experiment [3] addresses T2, Neuropeptide Y receptor type 1 (Homo sapiens, UniProt P25929).
T2 sequence (P25929 whole entry): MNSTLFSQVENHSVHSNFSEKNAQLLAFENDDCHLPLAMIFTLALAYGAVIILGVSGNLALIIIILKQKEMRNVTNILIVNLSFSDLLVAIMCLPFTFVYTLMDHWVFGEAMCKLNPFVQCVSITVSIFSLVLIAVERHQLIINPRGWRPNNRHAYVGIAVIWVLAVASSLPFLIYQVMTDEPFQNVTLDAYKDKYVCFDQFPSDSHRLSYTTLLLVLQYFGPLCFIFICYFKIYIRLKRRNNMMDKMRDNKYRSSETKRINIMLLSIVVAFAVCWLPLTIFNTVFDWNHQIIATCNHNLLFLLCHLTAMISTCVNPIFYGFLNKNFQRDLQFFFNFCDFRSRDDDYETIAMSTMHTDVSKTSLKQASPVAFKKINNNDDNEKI
Briefly: Fluorescence-based counterscreen for agonists of NPY-Y2: cell-based high-throughput dose response assay for agonists of NPY-Y1. It counts as functional. A general note: A counterscreen serves to expose hits that act by an unwanted route or on another target.

The target of experiment [4] is Polyadenylate-binding protein 1 (Homo sapiens, UniProt P11940). Briefly: MLLE binding blockers, Cy5 peptide tracer – biochemical, fluorescence polarization, Cy5-PAM2 peptide, secondary, miRNA deadenylation inhibitor project, dose response (AID 602260). It counts as functional. The settings on record: read-out: IC50_Mean. (Polarisation of emitted light reports the rotation of a fluorescent probe.)
Polyadenylate-binding protein 1, sequence (P11940 whole entry): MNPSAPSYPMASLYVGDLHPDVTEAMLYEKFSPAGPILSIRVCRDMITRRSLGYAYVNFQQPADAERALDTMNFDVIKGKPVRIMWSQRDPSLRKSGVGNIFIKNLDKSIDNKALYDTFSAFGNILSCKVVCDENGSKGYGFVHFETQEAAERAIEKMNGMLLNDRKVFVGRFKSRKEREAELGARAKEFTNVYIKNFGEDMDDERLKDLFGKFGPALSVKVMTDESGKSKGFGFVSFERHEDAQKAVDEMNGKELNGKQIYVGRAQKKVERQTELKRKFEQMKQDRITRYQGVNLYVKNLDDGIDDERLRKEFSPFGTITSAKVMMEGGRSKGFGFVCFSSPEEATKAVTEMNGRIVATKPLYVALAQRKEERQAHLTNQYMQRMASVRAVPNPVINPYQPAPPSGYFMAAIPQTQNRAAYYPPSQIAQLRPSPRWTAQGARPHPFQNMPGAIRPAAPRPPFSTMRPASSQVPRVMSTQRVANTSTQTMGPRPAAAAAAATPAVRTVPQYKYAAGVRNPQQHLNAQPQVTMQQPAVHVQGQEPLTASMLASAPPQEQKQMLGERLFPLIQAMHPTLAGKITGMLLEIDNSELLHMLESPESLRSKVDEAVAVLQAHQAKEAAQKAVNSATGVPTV

The target in experiment [5] is T3, Lysine-specific demethylase 4C (Homo sapiens, UniProt Q9H3R0).
T3 sequence (Q9H3R0 whole entry): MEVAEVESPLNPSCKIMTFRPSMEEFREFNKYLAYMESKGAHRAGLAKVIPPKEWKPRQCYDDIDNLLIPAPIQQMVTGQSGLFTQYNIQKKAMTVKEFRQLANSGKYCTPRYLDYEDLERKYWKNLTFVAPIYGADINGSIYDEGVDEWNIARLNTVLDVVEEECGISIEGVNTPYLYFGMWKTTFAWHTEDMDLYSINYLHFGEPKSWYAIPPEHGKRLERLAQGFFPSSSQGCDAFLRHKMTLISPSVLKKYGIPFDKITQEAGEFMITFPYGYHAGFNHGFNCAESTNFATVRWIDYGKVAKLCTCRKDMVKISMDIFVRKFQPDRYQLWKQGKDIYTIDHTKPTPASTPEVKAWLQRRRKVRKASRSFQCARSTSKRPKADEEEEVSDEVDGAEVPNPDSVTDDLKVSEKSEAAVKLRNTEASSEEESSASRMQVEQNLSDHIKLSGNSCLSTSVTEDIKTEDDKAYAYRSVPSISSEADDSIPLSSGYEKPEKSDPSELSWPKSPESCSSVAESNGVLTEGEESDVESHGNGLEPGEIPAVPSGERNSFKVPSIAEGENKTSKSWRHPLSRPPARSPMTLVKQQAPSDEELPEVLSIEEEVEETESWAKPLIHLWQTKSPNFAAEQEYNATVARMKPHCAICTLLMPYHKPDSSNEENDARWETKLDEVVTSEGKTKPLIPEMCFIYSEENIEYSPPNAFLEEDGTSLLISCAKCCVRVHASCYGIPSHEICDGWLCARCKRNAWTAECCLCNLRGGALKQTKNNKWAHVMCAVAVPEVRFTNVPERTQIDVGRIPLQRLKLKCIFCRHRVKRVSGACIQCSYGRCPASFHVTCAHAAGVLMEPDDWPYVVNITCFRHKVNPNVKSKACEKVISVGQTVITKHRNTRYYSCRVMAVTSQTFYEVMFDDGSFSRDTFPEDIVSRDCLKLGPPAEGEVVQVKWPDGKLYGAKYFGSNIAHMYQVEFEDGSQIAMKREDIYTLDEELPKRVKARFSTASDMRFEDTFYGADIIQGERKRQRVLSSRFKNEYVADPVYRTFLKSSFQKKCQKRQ
Briefly: inhibition of JMJD2C H3K9me3 demethylation – biochemical, DELFIA europium, cherry-picked samples, dose response (AID 488835). It counts as functional.

For the next experiment, the target named is Beta-galactosidase (Escherichia coli, UniProt Q8VNN2). Briefly: detection-enzyme interference by beta-gal modulators – biochemical, E. coli enzyme, set 3, artefact control for CCR6 antagonist project, dose response (AID 504712). It is filed as functional.
Beta-galactosidase, sequence (Q8VNN2 whole entry): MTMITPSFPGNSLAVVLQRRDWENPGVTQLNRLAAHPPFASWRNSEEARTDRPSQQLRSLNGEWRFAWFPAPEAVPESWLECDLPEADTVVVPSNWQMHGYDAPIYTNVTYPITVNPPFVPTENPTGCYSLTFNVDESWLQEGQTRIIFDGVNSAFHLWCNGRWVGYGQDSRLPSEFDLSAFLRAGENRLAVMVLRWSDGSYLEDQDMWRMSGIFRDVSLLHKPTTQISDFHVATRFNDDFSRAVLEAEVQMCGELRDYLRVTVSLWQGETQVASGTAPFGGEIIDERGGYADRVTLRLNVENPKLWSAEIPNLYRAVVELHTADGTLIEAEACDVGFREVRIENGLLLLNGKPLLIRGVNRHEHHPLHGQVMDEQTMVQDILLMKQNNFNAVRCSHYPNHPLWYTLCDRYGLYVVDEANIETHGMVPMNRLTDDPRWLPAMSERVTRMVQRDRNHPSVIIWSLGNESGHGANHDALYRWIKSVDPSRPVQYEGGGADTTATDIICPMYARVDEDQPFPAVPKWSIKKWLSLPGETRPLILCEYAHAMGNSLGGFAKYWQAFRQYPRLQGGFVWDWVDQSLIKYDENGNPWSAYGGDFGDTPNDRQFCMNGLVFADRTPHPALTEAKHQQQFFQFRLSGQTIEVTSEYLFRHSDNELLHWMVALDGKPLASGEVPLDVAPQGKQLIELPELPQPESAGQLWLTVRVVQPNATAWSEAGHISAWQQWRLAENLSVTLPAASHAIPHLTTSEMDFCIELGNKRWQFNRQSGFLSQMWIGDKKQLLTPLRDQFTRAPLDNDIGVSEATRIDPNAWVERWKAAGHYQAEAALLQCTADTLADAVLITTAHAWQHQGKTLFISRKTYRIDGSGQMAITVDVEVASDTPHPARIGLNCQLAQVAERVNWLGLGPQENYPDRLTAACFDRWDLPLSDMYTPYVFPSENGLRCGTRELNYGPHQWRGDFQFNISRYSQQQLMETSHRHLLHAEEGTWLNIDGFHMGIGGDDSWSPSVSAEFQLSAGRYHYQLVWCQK
The target of a further experiment is NS3 (Hepatitis C virus, UniProt A3EZJ3). As to the kind of experiment: PubChem AID 2173. The arrangement: species or system Hepacivirus hominis.
NS3, sequence (A3EZJ3 whole entry, the tested form may be a part): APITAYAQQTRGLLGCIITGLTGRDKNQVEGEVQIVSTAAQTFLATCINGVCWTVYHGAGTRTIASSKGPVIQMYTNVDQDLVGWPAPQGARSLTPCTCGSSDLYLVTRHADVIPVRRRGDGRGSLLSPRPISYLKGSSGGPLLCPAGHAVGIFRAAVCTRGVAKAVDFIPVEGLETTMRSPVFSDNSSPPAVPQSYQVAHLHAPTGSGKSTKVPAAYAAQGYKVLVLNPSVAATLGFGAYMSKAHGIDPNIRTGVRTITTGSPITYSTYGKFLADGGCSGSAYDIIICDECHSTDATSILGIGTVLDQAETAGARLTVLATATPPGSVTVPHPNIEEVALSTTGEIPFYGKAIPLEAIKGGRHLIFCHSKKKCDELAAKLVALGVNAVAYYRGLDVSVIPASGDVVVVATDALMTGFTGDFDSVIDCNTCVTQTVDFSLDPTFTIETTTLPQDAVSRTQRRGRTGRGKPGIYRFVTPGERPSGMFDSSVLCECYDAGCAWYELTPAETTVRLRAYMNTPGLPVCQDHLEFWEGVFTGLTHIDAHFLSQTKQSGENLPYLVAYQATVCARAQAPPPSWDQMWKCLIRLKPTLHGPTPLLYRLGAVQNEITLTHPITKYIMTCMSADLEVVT
Experiment [6] can be described thus: Fluorescence-based cell-based high throughput dose response assay for inhibitors of the interaction of nucleotide-binding oligomerization domain containing 2 (NOD2) and the receptor-interacting serine-threonine kinase 2 (RIPK2). It is filed as functional, Homo sapiens. The settings on record: Homo sapiens.
Experiment [7] is described as follows: Luminescence Cell-Based/Microorganism Confirmation at Dose of Inhibitors of Trypanosoma cruzi Infection. [Related pubchem assays: 1885, 1968 ]. It counts as functional.
For experiment [8], the system named is HEK293. As to the kind of experiment: cells. The settings on record: Homo sapiens. It is filed as functional, cell-based.
Experiment [9] in a line: Luminescence Cell-Based Secondary HTS screen to identify cytotoxic compounds of NIH3T3 cells. [Related pubchem assays: 1885, 1968 ]. It is filed as functional.
Experiment [10] has as its system HEK293. Briefly: inhibition of NOD1-driven NF-kB reporter – cell-based, luminescence, uHTS, primary screen (AID 1578). It counts as functional. The note with it: Homo sapiens.
Experiment [11] has as its target Nucleotide-binding oligomerization domain-containing protein 2 (Homo sapiens, UniProt Q9HC29). Briefly: inhibition of NOD2-driven NF-kB reporter – cell-based, luminescence, uHTS, HEK293 (AID 1566). It counts as functional.

Structures are written as SMILES. Activity calls are given as the source filed them.

Nucleotide-binding oligomerization domain-containing protein 2, sequence (Q9HC29 whole entry, the tested form may be a part): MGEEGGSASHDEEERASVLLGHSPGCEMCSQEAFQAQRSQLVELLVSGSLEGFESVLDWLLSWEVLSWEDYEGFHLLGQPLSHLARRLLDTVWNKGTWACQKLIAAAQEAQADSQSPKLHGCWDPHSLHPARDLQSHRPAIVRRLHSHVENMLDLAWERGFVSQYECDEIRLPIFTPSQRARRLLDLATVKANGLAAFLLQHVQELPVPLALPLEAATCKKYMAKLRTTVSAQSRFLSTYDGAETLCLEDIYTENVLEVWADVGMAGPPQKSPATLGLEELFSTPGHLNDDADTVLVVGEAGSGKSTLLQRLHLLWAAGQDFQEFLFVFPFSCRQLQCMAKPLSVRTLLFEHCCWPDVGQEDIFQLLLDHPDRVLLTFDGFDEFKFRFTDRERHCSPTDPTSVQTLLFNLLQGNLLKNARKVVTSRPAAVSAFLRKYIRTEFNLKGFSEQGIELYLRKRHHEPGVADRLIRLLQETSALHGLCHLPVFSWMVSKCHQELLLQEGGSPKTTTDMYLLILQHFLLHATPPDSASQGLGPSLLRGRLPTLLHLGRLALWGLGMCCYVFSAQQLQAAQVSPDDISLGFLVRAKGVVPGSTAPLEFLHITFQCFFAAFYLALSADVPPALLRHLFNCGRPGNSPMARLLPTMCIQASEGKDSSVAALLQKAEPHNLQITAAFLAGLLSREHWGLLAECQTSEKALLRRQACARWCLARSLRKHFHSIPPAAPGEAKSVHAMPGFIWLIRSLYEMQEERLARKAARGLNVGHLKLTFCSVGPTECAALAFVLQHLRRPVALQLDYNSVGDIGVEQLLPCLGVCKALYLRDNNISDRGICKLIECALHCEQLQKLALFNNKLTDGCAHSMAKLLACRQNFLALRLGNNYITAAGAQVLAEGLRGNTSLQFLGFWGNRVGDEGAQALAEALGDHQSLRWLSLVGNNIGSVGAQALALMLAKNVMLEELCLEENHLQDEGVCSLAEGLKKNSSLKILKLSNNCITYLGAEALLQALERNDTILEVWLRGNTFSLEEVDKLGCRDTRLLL

Usually AC50 stands for the concentration giving half of the maximal activity seen. In general, EC50 refers to the concentration giving half of the maximal effect. With `O=C(CC(O)(C(F)(F)F)C(F)(F)F)Nc1ccc(Cl)c(Cl)c1`, in [1], the concentration at half-maximal activity (AC50) was 16.8 µM (active). The EC50 in experiment [2] is on record as 21.7 µM (not active); in experiment [3], 16.5 µM (not active).

As to `O=C(O)CSc1cc(NS(=O)(=O)c2ccc(Br)cc2)c2ccccc2c1O`, the IC50 in experiment [4] was > 66 µM (inactive).

In the case of `O=C1NC(=S)N/C1=C/c1cc2c(cc1[N+](=O)[O-])OCO2`, the AC50 in experiment [5] is 30.4 µM (active).

Take `Cc1ccc(NC(=O)C2=C(c3ccccc3)S(=O)(=O)CCS2(=O)=O)cc1`: the IC50 is > 66.6 µM (inactive) at Beta-galactosidase, 9.23 µM (active) at NS3 and 2.73 µM (active) in experiment [6].

Turning to `O=C(CNc1cccc2ccccc12)N/N=C/c1ccc([N+](=O)[O-])o1`, the EC50 is 0.022 µM (active) in [7], 17.5 µM (active) in experiment [9], 3.28 µM (active) in the experiment on HEK293 [10] and 5.55 µM (active) in experiment [11]. Moreover, the IC50 with HEK293 [8] was 15.8 µM (active).
